In one test the target is human CB1 receptors (Homo sapiens (Human), UniProt P21554). Put plainly: cAMP assay, CHO cells expressing human CB1 receptors. Type of test: cell-based. The gist of the method: (§1)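 Read-out is TR-FRET (excitation 355 nm, emission 730/645 nm) after cell lysis, with cAMP content taken from a standard curve and EC50 calculated. Cells were pretreated with 1 mM IBMX in Krebs Ringer bicarbonate buffer, then incubated with compounds for 30 min at 30 °C.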

Another test deals with human CB2 receptors (Homo sapiens (Human), UniProt P34972). Briefly: cAMP assay, CHO cells expressing human CB2 receptors. Type of test: cell-based. The method in brief: as §1
The mark [1] stands for this setting: CHO cells expressing human CB1, cAMP, read-out: human CB1 EC50.
The mark [2] stands for this setting: CHO cells expressing human CB2, cAMP, read-out: human CB2 EC50.

The structures appear in SMILES notation. Read-outs that look alike come from different tables or passages of the source.

human CB1 receptors, sequence (P21554 whole entry): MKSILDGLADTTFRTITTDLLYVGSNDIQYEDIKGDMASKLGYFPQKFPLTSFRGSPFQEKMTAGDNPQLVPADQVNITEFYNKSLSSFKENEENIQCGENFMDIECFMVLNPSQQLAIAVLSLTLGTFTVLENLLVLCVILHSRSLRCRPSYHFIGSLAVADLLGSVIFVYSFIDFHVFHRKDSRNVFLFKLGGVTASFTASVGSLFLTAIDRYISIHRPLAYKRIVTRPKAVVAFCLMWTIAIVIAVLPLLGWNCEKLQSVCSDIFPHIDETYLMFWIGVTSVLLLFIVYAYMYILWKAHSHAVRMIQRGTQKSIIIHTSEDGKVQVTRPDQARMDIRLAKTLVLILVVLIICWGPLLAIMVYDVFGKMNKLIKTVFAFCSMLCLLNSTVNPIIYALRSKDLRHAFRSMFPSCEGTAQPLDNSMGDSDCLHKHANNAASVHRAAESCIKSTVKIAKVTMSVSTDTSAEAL
human CB2 receptors, sequence (P34972 whole entry): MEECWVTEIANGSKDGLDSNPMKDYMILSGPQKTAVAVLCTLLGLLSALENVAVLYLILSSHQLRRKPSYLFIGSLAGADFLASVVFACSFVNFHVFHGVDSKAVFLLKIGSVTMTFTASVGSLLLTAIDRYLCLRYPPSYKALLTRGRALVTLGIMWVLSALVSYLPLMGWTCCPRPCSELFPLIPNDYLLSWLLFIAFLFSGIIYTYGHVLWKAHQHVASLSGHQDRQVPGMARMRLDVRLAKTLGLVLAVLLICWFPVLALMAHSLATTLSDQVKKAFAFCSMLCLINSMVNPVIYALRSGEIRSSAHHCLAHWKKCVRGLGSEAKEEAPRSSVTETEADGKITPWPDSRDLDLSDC

With `CC(C)C[C@H](NC(=O)c1ccc(C2CCCO2)c(OCC2CC2)n1)C(N)=O` (stereo partly drawn) [Example 115, 6-Cyclopropylmethoxy-5-(tetrahydro-furan-2-yl)-pyridine-2-carboxylic acid ((S)-1-carbamoyl-3-methyl-butyl)-amide], the 50% effective concentration (EC50) on human CB1 receptors (setting [1]) stood at 953 nM; on human CB2 receptors (setting [2]), 6.6 nM.

With `CC(C)(NC(=O)c1ccc(C2CC2)c(-c2cccc(Cl)c2)n1)c1nccs1` [Example 116, 6-(3-Chloro-phenyl)-5-cyclopropyl-pyridine-2-carboxylic acid (1-methyl-1-thiazol-2-yl-ethyl)-amide], the concentration for a half-maximal effect (EC50) at human CB1 receptors was determined as 1450 nM; on human CB2 receptors, 85.9 nM.

For `COCCOCC(C)(C)NC(=O)c1ccc(C2CC2)c(OCC2CC2)n1` [Example 117, 5-Cyclopropyl-6-cyclopropylmethoxy-pyridine-2-carboxylic acid [2-(2-methoxy-ethoxy)-1,1-dimethyl-ethyl]-amide], the results for the concentration for a half-maximal effect (EC50) on human CB1 receptors (setting [1]) and on human CB2 receptors (setting [2]) were > 10000 nM and 350 nM, respectively.

Turning to `CC(C)C[C@H](NC(=O)c1ccc(C(F)(F)F)c(OCC2CC2)n1)C(N)=O` [Example 118, 6-Cyclopropylmethoxy-5-trifluoromethyl-pyridine-2-carboxylic acid ((S)-1-carbamoyl-3-methyl-butyl)-amide], the EC50 at human CB1 receptors (setting [1]) turned out to be 1550 nM; on human CB2 receptors (setting [2]) it was 13.4 nM.

On to `CC(C)(NC(=O)c1ccc(C(F)(F)F)c(OCC2CC2)n1)c1ncon1` [Example 119, 6-Cyclopropylmethoxy-5-trifluoromethyl-pyridine-2-carboxylic acid (1-methyl-1-[1,2,4]oxadiazol-3-yl-ethyl)-amide], for which the EC50 was > 10000 nM at human CB1 receptors (setting [1]) and 227 nM at human CB2 receptors (setting [2]).

As for `Cc1nc(C(C)(C)NC(=O)c2ccc(C(F)(F)F)c(OCC3CC3)n2)no1` [Example 120, 6-Cyclopropylmethoxy-5-trifluoromethyl-pyridine-2-carboxylic acid [1-methyl-1-(5-methyl-[1,2,4]oxadiazol-3-yl)-ethyl]-amide], the half-maximal effective concentration (EC50) at human CB1 receptors (setting [1]) is > 10000 nM; at human CB2 receptors (setting [2]), 259 nM.

Regarding `CC(C)(NC(=O)c1ccc(C(F)(F)F)c(OCC2CC2)n1)c1nccs1` [Example 121, 6-Cyclopropylmethoxy-5-trifluoromethyl-pyridine-2-carboxylic acid (1-methyl-1-thiazol-2-yl-ethyl)-amide], the EC50 on human CB1 receptors (setting [1]) came to 1350 nM; at human CB2 receptors (setting [2]), 111 nM.

In the case of `O=C(NC1CCCCC1CO)c1cccc(C2CCCCC2)n1` (stereo not drawn) [Example 122, 6-Cyclohexyl-pyridine-2-carboxylic acid (2-hydroxymethyl-cyclohexyl)-amide], the EC50 was > 10000 nM on human CB1 receptors (setting [1]) and 158 nM at human CB2 receptors (setting [2]).

`Cc1nc(C(C)(C)NC(=O)c2ccc(C3CCCO3)c(OCC3CC3)n2)no1` (stereo not drawn) [Example 123, 6-Cyclopropylmethoxy-5-(tetrahydro-furan-2-yl)-pyridine-2-carboxylic acid [1-methyl-1-(5-methyl-[1,2,4]oxadiazol-3-yl)-ethyl]-amide]: the EC50 on human CB1 receptors (setting [1]) is > 10000 nM; at human CB2 receptors (setting [2]) it was 20 nM.

For `Cc1nc(C(C)(C)NC(=O)c2ccc(C3CCOC3)c(OCC3CC3)n2)no1` (stereo not drawn) [Example 124, 6-Cyclopropylmethoxy-5-(tetrahydro-furan-3-yl)-pyridine-2-carboxylic acid [1-methyl-1-(5-methyl-[1,2,4]oxadiazol-3-yl)-ethyl]-amide], the values for the concentration for a half-maximal effect (EC50) on human CB1 receptors (setting [1]) and at human CB2 receptors (setting [2]) were > 10000 nM and 79.2 nM, respectively.

`Cc1nc(C(C)(C)NC(=O)c2ccc(C3CCCO3)c(-c3cccc(Cl)c3)n2)no1` (stereo not drawn) [Example 125, 6-(3-Chloro-phenyl)-5-(tetrahydro-furan-2-yl)-pyridine-2-carboxylic acid [1-methyl-1-(5-methyl-[1,2,4]oxadiazol-3-yl)-ethyl]-amide]: the EC50 on human CB1 receptors (setting [1]) was > 10000 nM; on human CB2 receptors (setting [2]) it was 209 nM.

Take `CC(C)(NC(=O)c1ccc(C2CCCO2)c(-c2cccc(Cl)c2)n1)c1ncco1` (stereo not drawn) [Example 126, 6-(3-Chloro-phenyl)-5-(tetrahydro-furan-2-yl)-pyridine-2-carboxylic acid (1-methyl-1-oxazol-2-yl-ethyl)-amide]: the concentration for a half-maximal effect (EC50) at human CB1 receptors (setting [1]) was > 10000 nM; at human CB2 receptors (setting [2]), 240 nM.

For the compound `CC(C)(NC(=O)c1ccc(C2CCCO2)c(-c2cccc(Cl)c2)n1)c1nccs1` (stereo not drawn) [Example 127, 6-(3-Chloro-phenyl)-5-(tetrahydro-furan-2-yl)-pyridine-2-carboxylic acid (1-methyl-1-thiazol-2-yl-ethyl)-amide], the 50% effective concentration (EC50) was > 10000 nM on human CB1 receptors (setting [1]) and 224 nM at human CB2 receptors (setting [2]).

For the compound `CC(C)(NC(=O)c1ccc(C2CCCC2)c(-c2cccc(Cl)c2)n1)c1nccs1` [Example 128, 6-(3-Chloro-phenyl)-5-cyclopentyl-pyridine-2-carboxylic acid (1-methyl-1-thiazol-2-yl-ethyl)-amide], the concentration giving a half-maximal response (EC50) was > 10000 nM at human CB1 receptors (setting [1]) and 240 nM at human CB2 receptors (setting [2]).

With `CC(C)(NC(=O)c1ccc(C(F)(F)F)c(OCC2CC2)n1)c1ncco1` [Example 129, 6-Cyclopropylmethoxy-5-trifluoromethyl-pyridine-2-carboxylic acid (1-methyl-1-oxazol-2-yl-ethyl)-amide], the figures for the EC50 at human CB1 receptors (setting [1]) and on human CB2 receptors (setting [2]) were > 10000 nM and 184 nM, respectively.

On to `Cc1ccc(C(=O)N[C@@H](CC2CC2)C(N)=O)nc1OCC1CC1` [Example 130, 6-Cyclopropylmethoxy-5-methyl-pyridine-2-carboxylic acid ((S)-1-carbamoyl-2-cyclopropyl-ethyl)-amide], for which the concentration for a half-maximal effect (EC50) is > 10000 nM on human CB1 receptors (setting [1]) and 50 nM at human CB2 receptors (setting [2]).

Consider `CC(C)C[C@H](NC(=O)c1ccc(N2CC(O)C2)c(OCC2CC2)n1)C(N)=O` [Example 131, 6-Cyclopropylmethoxy-5-(3-hydroxy-azetidin-1-yl)-pyridine-2-carboxylic acid ((S)-1-carbamoyl-3-methyl-butyl)-amide], for which the results for the concentration giving a half-maximal response (EC50) at human CB1 receptors (setting [1]) and at human CB2 receptors (setting [2]) were > 10000 nM and 78.4 nM, respectively.

Take `CC(C)C[C@H](NC(=O)c1ccc(N2CC(F)(F)C2)c(OCC2CC2)n1)C(N)=O` [Example 132, 6-Cyclopropylmethoxy-5-(3,3-difluoro-azetidin-1-yl)-pyridine-2-carboxylic acid ((S)-1-carbamoyl-3-methyl-butyl)-amide]: the EC50 at human CB1 receptors (setting [1]) came out at 1130 nM; at human CB2 receptors (setting [2]) it was 0.8 nM.

In the case of `NC(=O)[C@H](CC1CC1)NC(=O)c1ccc(NC2CC2)c(OCC2CC2)n1` [Example 133, 5-Cyclopropylamino-6-cyclopropylmethoxy-pyridine-2-carboxylic acid ((S)-1-carbamoyl-2-cyclopropyl-ethyl)-amide], the results for the 50% effective concentration (EC50) at human CB1 receptors (setting [1]) and at human CB2 receptors (setting [2]) were > 10000 nM and 37.7 nM, respectively.

Regarding `CC(C)C[C@H](NC(=O)c1ccc(NC2CC2)c(OCC2CC2)n1)C(N)=O` [Example 134, 5-Cyclopropylamino-6-cyclopropylmethoxy-pyridine-2-carboxylic acid ((S)-1-carbamoyl-3-methyl-butyl)-amide], the 50% effective concentration (EC50) at human CB1 receptors (setting [1]) is 151 nM; at human CB2 receptors (setting [2]), 5.1 nM.

Turning to `CC(C)(O)[C@H](CC1CC1)NC(=O)c1ccc(N2CC(F)(F)C2)c(OCC2CC2)n1` [Example 135, 6-Cyclopropylmethoxy-5-(3,3-difluoro-azetidin-1-yl)-pyridine-2-carboxylic acid ((S)-1-cyclopropylmethyl-2-hydroxy-2-methyl-propyl)-amide], the EC50 at human CB1 receptors (setting [1]) is > 10000 nM; on human CB2 receptors (setting [2]), 38.2 nM.

These data come from patent publication US9290451B2 (Hoffmann-La Roche Inc., priority 2011, dated 2016).
